According to patent US8178506B2, “Oligomeric compounds and compositions for use in modulation of small non-coding RNAs” (Regulus Therapeutics Inc., priority 2003, dated 2012):
Entries after “also recorded” stand apart in the source; their conditions may differ. In the oligonucleotide strings, read from the 5' end, every base follows the letter of its sugar. An asterisk marks phosphorothioate; unmarked linkages are phosphodiester. Other units and linkages are bracketed, terminal groups are in braces. A string of capitals states the bases alone. e = 2'-O-(2-methoxyethyl) (MOE); [5mC] = 5-methylcytosine

Legend:
Format in all cases: cell-based, human
[1] = system: A549 cells; assay: Cell cycle assay in A549 cells; conditions: A549 cells, 24 hours, relative to the untreated control cells in that phase
Method: In accordance with the present invention, certain oligomeric compounds targeting miRNAs were selected for dose response studies. Using the cell cycle assay described above, the cell cycle profiles of HeLa or A549 cells treated with varying concentrations of oligomeric compounds of the present invention were assessed.
Concomittent decreases in the percentage of cells in G1-phase of the cell cycle and increases in the percentage of hypodiploid (subG1) cells were also observed.
In a further study, A549 cells were treated with 25-, 50-, 100- or 150 nM of the oligomeric compounds ISIS Numbers 338637 (SEQ ID NO: 464) targeted against mir-96, and ISIS 338769 (SEQ ID NO: 596) targeted against mir-130b, ISIS 338836 (SEQ ID NO: 663) targeted against mir-23a, and ISIS 340350 (SEQ ID NO: 855) targeted against mir-95 (Mourelatos). Cells treated with increasing concentrations of oligomeric compounds were compared to untreated cells, to assess the dose-responsiveness of the observed delay or arrest. The random-mer ISIS 29848 was used as a negative control. Cells were prepared for flow cytometry 24-hours after oligonucleotide treatment. Results of these dose response studies are shown in Table 34, where data are expressed as percentage of cells in each phase relative to the untreated control cells in that phase.

[2] = system: T47Dp53 cells; assay: Cell cycle assay in T47Dp53 cells; conditions: 150 nM, 48 hours, relative to untreated control
Method: In further studies, additional cell lines were treated with oligomeric compounds targeted against miRNAs to assess the effects of each oligomeric compound on cell cycling. BJ, B16, T47D, and HeLa cells were cultured and transfected as described above. […] T47Dp53 cells are T47D cells that have been transfected with and selected for maintenance of a plasmid that expresses a wildtype copy of the p53 gene (for example, pCMV-p53; Clontech, Palo Alto, Calif.), using standard laboratory procedures. BJ cells were treated with 200 nM of each oligomeric compound, and T47D, T47Dp53, HeLa, and B16 cells were treated with 150 nM of each oligomeric compound. The human foreskin fibroblast BJ cell line represents a non-cancer cell line, while HeLa, T47D, T47Dp53 cells and the mouse melanoma cell line B16-F10 represent cancerous cell lines. For comparison, oligomeric compounds ISIS 183891 (SEQ ID NO: 847) and ISIS 285717 ([…]; herein incorporated as SEQ ID NO: 857), both targeting the kinesin-like 1/Eg5 mRNA, involved in cell cycling, were used as positive controls. The random-mer ISIS 29848 was used as a negative control. Additionally, the oligomeric compounds ISIS Number 25690 ([…]; herein incorporated as SEQ ID NO: 858) and ISIS Number 25691 ([…]; herein incorporated as SEQ ID NO: 859), targeted to nucleotides 3051-3070 and 3085-3104, respectively, of the mRNA encoding the Drosha RNase III (GenBank Accession NM_013235.2, incorporated herein as SEQ ID NO: 860) were also tested. ISIS Number 25690 and ISIS Number 25691 are 5-10-52′-MOE gapmer compounds, 20 nucleotides in length, with phosphorothioate internucleoside linkages throughout the oligomeric compound. All cytidine residues are 5-methylcytidines. Transfections were performed using the methods described herein. Cells were prepared for flow cytometry 48-hours after oligonucleotide treatment. Results of these studies are shown in Table 35, where data are expressed as percentage of cells in each phase relative to the untreated control cells in that phase.

[3] = system: HeLa cells; assay: Cell cycle assay in HeLa cells; conditions: HeLa cells, 150 nM oligomeric compound
[4] = system: mir-21 pri-miRNA; assay: mir-21 pri-miRNA expression in HeLa cells (real-time RT-PCR); conditions: for levels of the mir-21 pri-miRNA molecule: HeLa; for levels of the mir-21 pri-miRNA molecule / mir-21 pri-miRNA expression % UTC: 100 nM; for mir-21 pri-miRNA expression % UTC: HeLa cells, real-time RT-PCR
Method: In one embodiment, the expression of mir-21 (noted to be expressed at high levels in HeLa cells) was assessed in cells treated with oligomeric compounds. Using the transfection methods previously described, HeLa cells were treated with 100 nM of the uniform 2′-MOE oligomeric compound ISIS Number 327917 (SEQ ID NO: 335) targeting the mir-21 mature miRNA. Total RNA was isolated by lysing cells in 1 mL TRIZOL™ (Invitrogen) using the manufacturer's recommended protocols. […] Real-time RT-PCR analysis was also performed on HeLa cells treated with ISIS 327917 using a primer/probe set specific for the mir-21 pri-miRNA molecule [forward primer=ISIS 339332 ([…]; herein incorporated as SEQ ID NO.: 911), reverse primer-ISIS 339333 (TCGACTGGTGTTGCCATGA; herein incorporated as SEQ ID NO.: 912), and probe=ISIS 339334 ([…]; herein incorporated as SEQ ID NO.: 913)]. Total RNA was quantified using RiboGreen™ RNA quantification reagent (Molecular Probes, Inc. Eugene, Oreg.), expression levels observed for the target were normalized to 5.8S rRNA, and values were expressed relative to an untreated control (UTC).
Using the real-time RT-PCR methods, the expression levels of the mir-21 pri-miRNA were compared in HeLa cells treated with this nested series of uniform 2′-MOE oligomeric compounds, targeting and spanning the entire length of the mir-21 pri-miRNA. ISIS Number 358768 (SEQ ID NO: 918) targets a region flanking the predicted 5′ Drosha cleavage site in the mir-21 pri-miRNA. ISIS Number 358777 (SEQ ID NO: 927) targets a region spanning the 3′ Drosha cleavage site in the mir-21 pri-miRNA. ISIS 358779 (SEQ ID NO: 929) targets a region flanking the predicted 3′ Drosha cleavage site in the mir-21 pri-miRNA. Additionally, oligomeric compounds ISIS 327917 (SEQ ID NO: 335), a uniform 2′-MOE compound targeting the mature mir-21 miRNA, and ISIS 345382 ([…]; SEQ ID NO: 335), a 5-10-7 phosphorothioate 2′-MOE gapmer targeting mir-21, were tested for comparison. Oligomeric compound ISIS 327863 ([…]; herein incorporated as SEQ ID NO: 936), a phosphorothioate 5-10-52′-MOE gapmer, was used as scrambled control. […] Total RNA was isolated by lysing cells in 1 mL TRIZOL™ (Invitrogen) using the manufacturer's recommended protocols. real-time RT-PCR analysis was performed using the primer/probe set specific for the mir-21 pri-miRNA molecule [forward primer=ISIS 339332 (SEQ ID NO.: 911), reverse primer-ISIS 339333 (SEQ ID NO.: 912), and probe=ISIS 339334 (SEQ ID NO.: 913)]. Total RNA was quantified using RiboGreen™ RNA quantification reagent (Molecular Probes, Inc. Eugene, Oreg.), expression levels observed for each target were normalized to 5.8S rRNA, and values were expressed relative to the untreated control (UTC). Effects on expression of the mir-21 pri-miRNA molecule resulting from treatment of HeLa cells with these uniform 2′-MOE oligomeric compounds is expressed as a percentage of RNA levels in untreated control cells.

[5] = 24 hours, relative to untreated control (UTC = 100)
[6] = 48 hours after treatment, relative to untreated control (UTC=100)

338769 (antisense GCTTCCCAGCGGCCTATAGT; all 2'-MOE, all phosphorothioate, methylation of C not given here) [compound 338769]
% cells in cell cycle phase: G1 ([1]; 25 nM): 101% | % cells in cell cycle phase: G2/M ([1]; 25 nM): 114% | % cells in cell cycle phase: S ([1]; 25 nM): 94% | % cells in cell cycle phase: aneuploid ([1]; 25 nM): 101% | % cells in cell cycle phase: subG1 ([1]; 25 nM): 62% | % cells in cell cycle phase: G1 ([1]; 50 nM): 114% | % cells in cell cycle phase: G2/M ([1]; 50 nM): 122% | % cells in cell cycle phase: S ([1]; 50 nM): 81% | % cells in cell cycle phase: aneuploid ([1]; 50 nM): 132% | % cells in cell cycle phase: subG1 ([1]; 50 nM): 82% | % cells in cell cycle phase: G1 ([1]; 100 nM): 124% | % cells in cell cycle phase: G2/M ([1]; 100 nM): 113% | % cells in cell cycle phase: S ([1]; 100 nM): 75% | % cells in cell cycle phase: aneuploid ([1]; 100 nM): 157% | % cells in cell cycle phase: subG1 ([1]; 100 nM): 130% | % cells in cell cycle phase: G1 ([1]; 150 nM): 117% | % cells in cell cycle phase: G2/M ([1]; 150 nM): 145% | % cells in cell cycle phase: S ([1]; 150 nM): 71% | % cells in cell cycle phase: aneuploid ([1]; 150 nM): 184% | % cells in cell cycle phase: subG1 ([1]; 150 nM): 341% | % cells in cell cycle phase G1 [2]: 103% | % cells in cell cycle phase G2/M [2]: 123% | % cells in cell cycle phase S [2]: 87% | % cells in cell cycle phase aneuploid [2]: 87% | % cells in cell cycle phase subG1 [2]: 116% | % cells aneuploid [3, 5]: 133% | % cells in cell cycle phase G1 [3, 5]: 171% | % cells in cell cycle phase G2/M [3, 5]: 103% | % cells in cell cycle phase S [3, 5]: 61% | % cells in cell cycle phase subG1 [3, 5]: 188% | % cells in cell cycle phase: G1 [3, 6]: 76% | % cells in cell cycle phase: G2/M [3, 6]: 149% | % cells in cell cycle phase: S [3, 6]: 116% | % cells in cell cycle phase: aneuploid [3, 6]: 194% | % cells in cell cycle phase: subG1 [3, 6]: 482%

ISIS 358768: uniform 2′-MOE PS; SEQ ID NO: 918; region flanking 5′ Drosha cleavage site of mir-21 pri-miRNA (antisense eA*eG*eG*eT*eG*eG*eT*eA*e[5mC]*eA*eG*e[5mC]*e[5mC]*eA*eT*eG*eG*eA*eG*eA) [uniform 2′-MOE PS; region flanking 5′ Drosha cleavage site of mir-21 pri-miRNA]
levels of the mir-21 pri-miRNA molecule [4]: stimulate an increase in levels of the mir-21 pri-miRNA molecule; also recorded: stimulate the greatest increases in expression of the mir-21 pri-miRNA | mir-21 pri-miRNA levels, dose response ([4]; HeLa, 25, 50, 100 and 200 nM): dose-responsive induction of mir-21 pri-miRNA levels

358769 (eG*eA*eT*eA*eA*eG*e[5mC]*eT*eA*e[5mC]*e[5mC]*e[5mC]*eG*eA*e[5mC]*eA*eA*eG*eG*eT; antisense) [compound 358769]
mir-21 pri-miRNA expression % UTC [4]: 265 % UTC

ISIS 358776: uniform 2′-MOE PS; targets mir-21 pri-miRNA (antisense eT*eG*eT*e[5mC]*eA*eG*eA*e[5mC]*eA*eG*e[5mC]*e[5mC]*e[5mC]*eA*eT*e[5mC]*eG*eA*e[5mC]*eT)
levels of the mir-21 pri-miRNA molecule [4]: stimulate an increase in levels of the mir-21 pri-miRNA molecule

358778 (antisense eG*eA*eT*eA*e[5mC]*e[5mC]*eA*eA*eA*eA*eT*eG*eT*e[5mC]*eA*eG*eA*e[5mC]*eA*eG) [compound 358778]
mir-21 pri-miRNA expression % UTC [4]: 503 % UTC

358776 (antisense eT*eG*eT*e[5mC]*eA*eG*eA*e[5mC]*eA*eG*e[5mC]*e[5mC]*e[5mC]*eA*eT*e[5mC]*eG*eA*e[5mC]*eT) [compound 358776]
mir-21 pri-miRNA expression % UTC [4]: 367 % UTC

358785 (antisense eG*eA*eA*eA*eG*eA*eT*eA*e[5mC]*e[5mC]*eA*eA*eA*eA*eT*eG*eT*e[5mC]*eA*eG) [compound 358785]
mir-21 pri-miRNA expression % UTC [4]: 257 % UTC

358770 (eA*eG*eT*e[5mC]*eT*eG*eA*eT*eA*eA*eG*e[5mC]*eT*eA*e[5mC]*e[5mC]*e[5mC]*eG*eA*e[5mC]; antisense) [compound 358770]
mir-21 pri-miRNA expression % UTC [4]: 250 % UTC
